Laboratory results from patent publication US12428360B2, “Abating unwanted emulsion polymerization during extractive distillation of conjugated diene monomers” (ECOLAB USA INC., priority 2022, dated 2025).

Test: Isoprene polymerization test at 95° C. in heptane (heptane phase, turbidity method)
Description: The commercial isoprene was passed through an alumina column to remove stabilizer 4-tert-butylcatechol. A 100 mL jar was charged with 0.2 g active polymerization inhibitor, 40 mL heptane, 40 mL DMF, and a stir bar. The above mixture was stirred at room temperature for 30 minutes and settled for 10 minutes.
Heptane phase: A 100 mL jar was charged with 5.0 mL top layer of previous settled two layers' mixture, 1 mL AIBN (0.0004 g/mL) solution, isoprene 50 g. Hexane was added to make a total weight of 100 g solution. About 13 ml of the above mixture was added to 12 pressure tubes with a stir bar and heated to 95° C. After 30 minutes, and every 30 minutes thereafter, two tubes were retrieved from the block and the polymerization reaction was quenched by cooling in an ice bath. The cooled polymer solutions were immediately diluted with toluene. The soluble polymer in the liquid was determined by turbidity method. Results can be seen in FIG. 2. The data used to generate the trend lines in FIG. 2 can be seen in Table 2.

SMILES: CCC(C)Nc1ccc(NC(C)CC)cc1 (stereo not shown) [PDA, di-sec-butyl-4,4′-phenylenediamine]
- polymerization growth in Heptane phase (polyisoprene) (Time 0, AIBN initiator): 0 w/w %
- polymerization growth in Heptane phase (polyisoprene) (Time 30 (minutes per method), AIBN initiator): 0.10% w/w %
- polymerization growth in Heptane phase (polyisoprene) (Time 60 (minutes per method), AIBN initiator): 0.24% w/w %
- polymerization growth in Heptane phase (polyisoprene) (Time 90 (minutes per method), AIBN initiator): 0.45% w/w %
- polymerization growth in Heptane phase (polyisoprene) (Time 120 (minutes per method), AIBN initiator): 0.83% w/w %
- polymerization growth in Heptane phase (polyisoprene) (Time 180 (minutes per method), AIBN initiator): 1.05% w/w %
- polymerization growth in Heptane phase (polyisoprene) (Time 240 (minutes per method), AIBN initiator): 1.20% w/w %
